By IC50 is commonly meant the concentration at which inhibition is half-maximal. For orientation: ED50 means the dose that gives a 50% effect, or the effect in half of the subjects. A lower ED50 goes with an effect at a small dose.

In one assay the target is phosphordiesterase. As to the kind of experiment: phosphordiesterase inhibition. The class given is biochemical. An excerpt:
Examples for the compounds of Formula I

The test system of assay [1] is Ovalbumin-induced asthmatic late phase eosinophilia in the lung. As to the kind of experiment: Ovalbumin-induced asthmatic late phase eosinophilia in the lung (guinea pigs). The format is in vivo. The protocol:
(§1) The acute toxicity of the compounds of the invention in the mouse (expressed by the LD 50 mg/kg; method after Miller and Tainter: Proc. Soc. Exper. Biol. a. Med. 57 (1944) 261) is for example above 1000 mg/kg in oral application. More detailed information on the previously mentioned test models. The figures cited relate to the compounds of the invention, in particular the compounds according to Example I.
1. Ovalbumin-induced asthmatic late phase eosinophilia in the lung (guinea pigs)

The subject of assay [2] is Asthma-induced by domestic dust mites. Kind of assay: Asthma induced by domestic dust mites (rabbits). The format is in vivo. To be noted: 10 mg/ml as aerosol for 2 minutes. The protocol:
as §1
2. Asthma-induced by domestic dust mites (rabbits)
Lit.: J. Allergy Clin. Immunol. 87, 1991, p. 312 Administration/dosage: 10 mg/ml as aerosol for 2 minutes

Assay [3] has as its system Allergic bronchoconstriction. Kind of assay: Allergic bronchoconstriction according to Konzett-Rossler (rat). The note with it: iv. The class given is in vivo. The protocol: as §1
3. Allergic bronchoconstriction according to Konzett-Rossler (rat)
Lit.: Naunyn-Schmiedeb. Arch. Exp. Pathol. Pharmakol. 195, 1940, p. 71-74

The subject of the next assay is mast cells. Kind of assay: Allergically-induced histamine release from mast cells (rat). The class given is cell-based. To be noted: Mast cell. The protocol: as §1
1. Allergically-induced histamine release from mast cells (rat)

Another assay concerns monocytes. Kind of assay: Lipopolysaccharide-induced interleucin-1 production of monocytes (man). The format is cell-based. To be noted: Homo sapiens, Monocyte. The protocol: as §1
2. Lipopolysaccharide-induced interleucin-1 production of monocytes (man)

For the next assay, the system named is alveolar macrophages. Kind of assay: Platelet-activating factor (Paf)-induced oxygen radical release from alveolar macrophages (guinea pig). The format is cell-based. The note with it: Cavia porcellus, Macrophage. The protocol:
as §1
3. Platelet-activating factor (Paf)-induced oxygen radical release from alveolar macrophages (guinea pig)

The target of another assay is T1, 5-Lipoxygenase (Rattus norvegicus, UniProt P12527).
T1 construct: endogenous in cells; host or cells: rat peritoneal macrophages
T1 sequence (P12527 1-673): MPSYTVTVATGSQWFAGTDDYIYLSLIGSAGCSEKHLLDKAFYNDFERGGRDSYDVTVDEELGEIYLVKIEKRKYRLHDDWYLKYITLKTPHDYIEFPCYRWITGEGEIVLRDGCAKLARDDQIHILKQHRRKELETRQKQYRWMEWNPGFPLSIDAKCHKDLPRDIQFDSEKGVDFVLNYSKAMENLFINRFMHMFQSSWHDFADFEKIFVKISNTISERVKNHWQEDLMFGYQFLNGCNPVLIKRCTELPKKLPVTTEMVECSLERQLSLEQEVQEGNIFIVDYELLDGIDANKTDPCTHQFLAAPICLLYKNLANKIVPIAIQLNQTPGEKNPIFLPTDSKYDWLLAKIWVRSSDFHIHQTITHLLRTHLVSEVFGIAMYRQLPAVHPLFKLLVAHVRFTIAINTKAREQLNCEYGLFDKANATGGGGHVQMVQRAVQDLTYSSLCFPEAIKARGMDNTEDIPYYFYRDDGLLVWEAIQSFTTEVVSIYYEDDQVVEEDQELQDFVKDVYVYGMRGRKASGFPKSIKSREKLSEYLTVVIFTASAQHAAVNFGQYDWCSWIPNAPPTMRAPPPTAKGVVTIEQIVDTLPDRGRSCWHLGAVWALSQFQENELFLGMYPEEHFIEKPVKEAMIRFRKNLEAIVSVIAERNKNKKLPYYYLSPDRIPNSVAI
Kind of assay: 5-Lipoxygenase inhibition in peritoneal macrophages (rat). The class given is cell-based. The protocol:
as §1
4. 5-Lipoxygenase inhibition in peritoneal macrophages (rat)

In turn, `CN(C(=O)CCCCOc1ccc2[nH]c(=O)c3cccn3c2n1)C1CCCCC1` [D 20169] had an IC50 on phosphordiesterase of 7.34 µM.
In the case of `O=c1[nH]c2ccc(O)nc2n2cccc12` [Example I, 4,5-Dihydro-8-hydroxy-4-oxo-pyrido[3,2-e]pyrrolo[1,2-a]pyrazine], the “inhibition of asthmatic late phase eosinophilia in the lung” value is recorded as 67% in assay [1] (5 mg/kg/i.p.) and 98% in assay [1] (10 mg/kg/i.p.). Moreover, the “Asthmatic late phase: inhibition” value in assay [2] turned out to be 51%. Further, in assay [2], the “Bronchial hyperreactivity: inhibition” value was determined as 51%. The “Bronchoconstriction: inhibition” value in assay [2] is 49%. Moreover, the ED50 in assay [3] worked out at 0.5 mg/kg. In addition, the IC50 was 0.7 µM with mast cells; 4.5 µM with monocytes; 6.1 µM in the assay with alveolar macrophages; 12 µM against 5-Lipoxygenase; 32.2 µM against phosphordiesterase.
Take `CNC(=O)CCCOc1ccc2[nH]c(=O)c3cccn3c2n1` [Example 98]: the IC50 at phosphordiesterase was 15.1 µM.

The values above are taken from patent publication US5405847A, “4,5-dihydro-4-oxo-pyrrolo[1,2-a]quinoxalinones and corresponding aza analogs and a process for their preparation” (Asta Medica Aktiengesellschaft, priority 1992, dated 1995).
